Data on one molecule can be found in patent publication US20220304992A1, “METHODS OF REJUVENATING AGED TISSUE BY INHIBITING 15-HYDROXYPROSTAGLANDIN DEHYDROGENASE (15-PGDH)” (The Board of Trustees of the Leland Stanford Junior …, priority 2019, published 2022).

Experiment [1] has as its system aged mice with PTGDS knockdown. Kind of experiment: SW treatment of aged mice with AAV9 shRNA knockdown of PTGDS. It counts as in vivo, mouse. To be noted: aged muscles, SW one month.
Experiment [2] deals with myotubes. Kind of experiment: Differentiated (starved) cultured myotubes: Atrogin1 expression and diameter. It counts as cell-based, mouse. To be noted: starved (24 hr) or non-starved myotubes; PGE2 10 ng/ml, SW 1 μM; listed as SW. As to the method: For myotubes we performed fixation using 4% PFA, blocking and permeabilization using PBS/1% BSA/0.1% Triton X-100 and staining with primary antibodies anti-MyHC (Thermo Fisher Scientific, catalog #14-6503-82, clone MF-20, 1:500) and then with AlexaFluor secondary Antibodies (Jackson ImmunoResearch Laboratories, 1:500). We counterstained nuclei with DAPI (Invitrogen).
Primary myoblasts were grown in myogenic cell culture medium containing DMEM/F10 (50:50), 15% FBS, 2.5 ng ml-1 fibroblast growth factor-2 and 1% penicillin-streptomycin. For differentiation experiments, confluent myoblasts were grown in medium containing 5% horse serum, DMEM. […] Myoblasts were isolated from EP4^fl/fl mice and received either a mCherry/Cre lentivirus or a mock infection as previously described (5).
For cultured myotubes we performed fixation using 4% PFA, blocking and permeabilization using PBS/1% BSA/0.1% Triton X-100 and staining with primary antibodies anti-MYH (Thermo Fisher Scientific, catalog #14-6503-82, clone MF-20, 1:500) and then with AlexaFluor secondary Antibodies (Jackson ImmunoResearch Laboratories, 1:500). We counterstained nuclei with DAPI (Invitrogen). We acquired images using the KEYENCE BZ-X700 all-in-one fluorescence microscope (Keyence) with 20x/0.75 N.A. objectives. We analyzed the fiber area using the Keyence Advanced Analysis Software. For fiber area the entire maximum cross-sectional area of the muscle was quantified or at least 10 fields of LAMININ or WGA stained myofiber cross-sections encompassing over 400 myofibers were captured for each mouse as above. For fiber typing analysis, the MATLAB application SMASH-Semi-Automatic Muscle Analysis Using Segmentation of Histology, was used as previously described (12). Data analyses were blinded. The researchers performing the imaging acquisition and scoring were unaware of treatment condition given to sample groups analyzed.
Primary murine myoblasts were grown in myogenic cell culture medium containing DMEM/F10 (50:50), 15% FBS, 2.5 ng ml^−1 fibroblast growth factor-2 and 1% penicillin-streptomycin. […] For differentiation experiments, confluent myoblasts were grown in medium containing 5% horse serum, DMEM.

In experiment [3] the test system is pFOXO. Kind of experiment: Immunoblots of muscle lysates from aged vehicle and SW treated mice. It counts as in vivo, mouse. To be noted: aged muscles, SW vs vehicle. As for the experimental part:
Total lysates were prepared using lysis buffer (50 mM Tris-HCl pH 7.5, 150 mM NaCl, 4 mM CaCl, 1.5% Triton X-100, protease inhibitors and micrococcal nuclease). For tissue extracts, lysates were homogenized a FastPrep 24 homogenizer (MP Biomedicals) for 40 seconds at a speed of 6 m/s. We used the following antibodies: 15-PGDH (Santa Cruz Biotechnology, cat # sc-271418); phospho-AKT (Ser 473) (Cell Signaling cat #4060), AKT (Cell signaling cat #2920); phospho-FoxO1 (Thr24)/FoxO3a (Thr32) Antibody (Cell Signaling cat #9464T); Foxo3a (Cell Signaling cat #2497); phospho-CREB (Ser133) (Cell Signaling cat #9198S); phospho-S6 ribosomal protein (Ser235/236) (Cell Signaling cat#4858); SMC1 (Bethyl Laboratories cat# A300-055A-T). We used HRP conjugated secondary antibodies and developed by incubating the membranes with ECL Western Blotting Substrate (Nacalai USA) and imaging using the ChemiDoc Imaging System (BioRad).
For orientation: A western blot detects proteins with antibodies after separation by electrophoresis.

The structures appear in SMILES notation. Entries after “also recorded” stand apart in the source; their conditions may differ.

For `CCCC[S+]([O-])c1sc2nc(-c3cccs3)cc(-c3ccccc3)c2c1N` (centres unmarked) [SW033291, 2-(butylsulfinyl)-4-phenyl-6-(thiophen-2-yl)thieno[2,3-b]pyridin-3-amine], in experiment [1], the endurance entry is reported as “increase”, the muscle force result is “increase” and the muscle mass entry is listed as “increase”. Moreover, the myotube diameter result in experiment [2] is recorded as “no increase; also recorded: no effect”. Moreover, the pFOXO entry in experiment [3] was “increased”.
